Results published in patent US12274731B1, “Polybasic antimalarial agents and methods of use thereof” (priority 2018, dated 2025).
Where two headings read alike, the source gives them in different places.

Experiments:
[1] = test system: Plasmodium falciparum (Dd2 and Nf54); experiment: P. falciparum growth assay / dose-response in human erythrocyte culture (parasitemia after 72 h, acridine orange, FACS); type: cell-based; conditions: for parasite growth (endpoint parasitemia, percentage of control): 72-hour treatment, equal concentrations in the media; for IC50: P. falciparum in human erythrocytes, about 72 hours post compound addition
Description: FIG. 4A-FIG. 4D. […] DHHC8 transcript codes for five consecutive lie-residues. Levels of each transcript are normalized to total ribosome levels and represented as a ratio of transcript levels under Ile starvation (−Ile) over the control conditions (+Ile). […] Western blot analysis of Ile starved (−Ile), and control (+Ile) sample are normalized to PfHAD1 (PF3D7_1033400) levels. HA-tagged P. falciparum Pelo protein was CRISPR/Cas9 engineered and detected using mouse HA-antibody. The molecular weight of each protein is indicated. […] (D) P. falciparum growth assay in the presence of different compounds and amino acid polymers. Data represent endpoint parasitemia after 72-hour treatment with the indicated compound. Results are normalized to non-treated cultures (control) and presented as a percentage of control samples. Average value from three biological replicates is reported with standard deviation.
The lack of P. falciparum taxis during invasion of host cells, alterations in cytoadhesive properties of infected erythrocytes and previously shown invasion-blocking effects of heparin prompted testing whether poly-lysine repeats in P. falciparum membrane proteins contribute to the overall efficiency of parasite invasion of host erythrocytes.
For FIG. 21-FIG. 25, the general procedure for the drug assays included a total sample volume of 200 μl, every concentration was performed in triplicate, hematocrit was 2%, and starting parasitemia was 1%. The starting concentration of drug was 100 μg/ml and the serial dilution was made from the starting concentration. The end concentration was 0.39 μg/ml). The control represents growth of the parasite culture without added drug. All samples were subjected to Acridine orange staining and the FACS analysis was done on 96 well plates. FlowJo was used to calculate parasitemia.
Dose-response experiments were performed in triplicate with mixed culture of P. falciparum (1.0%-1.2% starting parasitemia). Parasitemias (percentage of total erythrocytes infected with parasites) were measured approximately 72 hours post compound addition by nucleic acid staining of infected red blood cells with 0.8 mg/ml acridine orange in PBS. Inhibition data were fit to a sigmoidal dose-response curve was done using Graphpad Prism 5.0.

uninfected human cells = experiment: Binding to uninfected human cells (fluorescence microscopy); type: cell-based
Procedure: Here, the same procedure as for above (FIG. 19) was performed for the cell culture, except for the incubation volume was 1 ml in PBS and the images were taken on a lab microscope.

[2] = test system: mCherry labelled P. berghei; experiment: Treatment of mice infected with mCherry labelled P. berghei; type: in vivo; conditions: 4 doses, over 7 days of infection
Description: Intraperitoneal treatment of mice results in the reduction of parasitemia over 2 days (see e.g., FIG. 25).

human erythrocytes = experiment: Hemolysis in erythrocyte culture; type: cell-based; conditions: at IC50
[3] = Structure preservation of crystalline PLL; type: physicochemical; conditions: 37° C.

Substance | activity against Plasmodium / malaria [1] | parasite growth (endpoint parasitemia, percentage of control) [1] | IC50 [1] | binding to other human cells (uninfected human cells) (uninfected human cells) | also measured
10-L-lysines (SEQ ID NO: 4): Poly (L) lysine of 10 residues in length, from Alamanda polymers (KKKKKKKKKK; Synthetic polybasic peptide) | no activity |  |  |  | 
heparin |  | inhibiting parasite growth | 12 µg/mL |  | 
poly-L-lysine |  | efficient reduction of parasite growth | 9 µg/mL | do not detectably bind | parasitemia [2]: reduces parasitemia; hemolysis (human erythrocytes): without hemolysis; structure preservation [3]: preserves structure
poly-L-ornithine |  | efficient reduction of parasite growth |  | do not detectably bind | 
poly-glutamate |  | did not affect the growth of parasites |  |  | 
poly-ε-L-lysine | not shown to be effective |  |  |  | activity against Plasmodium / malaria ([1]; listed as Epsilon poly-lysine): did not appear to have activity
